This is an account of results in US9821072B2, “Activated neurotensin molecules and the uses thereof” (priority 2014, dated 2017).

What all share (assay type): in vivo, mouse
Assay [1] relates to NMRI mice with yeast-induced hyperthermia. Briefly: Antipyretic effect in yeast-induced hyperthermia in NMRI mice. The procedure: In addition to eliciting a strong hypothermic effect when injected intravenously in naïve mice, we assessed the antipyretic effect of activated NT drugs of the invention in mice with yeast-induced hyperthermia. Briefly, rectal temperature of male NMRI mice was first measured 14 hours before the test using a rectal probe (Baseline 1, two independent measurements at a minimum of 5 min interval). Mice were then injected subcutaneously with either a yeast suspension (512 mg/kg), to induce a hyperthermic response, or hydroxypropylmethylcellulose (HPMC) in saline 0.9%. Fourteen hours later, rectal temperature of the mice was measured again (Baseline 2, two independent measurements at a minimum of 5 min interval) in order to assess the effect of yeast or HPMC injection on baseline temperature.

Assay [2] has as its system Swiss (CD-1) mice. Briefly: Hypothermic response upon four daily i.v. administrations in Swiss (CD-1) mice. To be noted: 4 mg/kg eq. NT daily i.v. As to the method:
In order to determine the hypothermic responsiveness of mice upon repeated administrations of activated NT of the invention, Swiss (CD-1) mice were challenged to four daily intravenous (bolus) administrations of compound XIV at 4 mg/kg eq. NT. Rectal body temperature was monitored each day during 3 hours post-injection.

Assay [3] deals with Swiss (CD-1) mice. The assay can be described thus: Hypothermic response (rectal body temperature) after i.v. bolus in Swiss (CD-1) mice.
Assay [4] concerns FVB/N mice with KA-induced status epilepticus. Briefly: Kainic acid-induced status epilepticus model (body temperature, seizures, neurodegeneration, neuroinflammation, mossy fiber sprouting). The note with it: 30 min after SE onset; first of two values, presumably 2 mg/kg eq. NT.
Assay [5] shares this test system. The assay is described as above. From the text:
In the present case, excitotoxicity was induced by subcutaneous (s.c.) injection of kainic acid (KA), a pro-convulsant agent known to induce a status epilepticus (SE) with excitotoxicity, neuroinflammation, and severe neuronal damage in the hippocampus that can be observed 3 to 7 days after KA administration, and with aberrant axonal sprouting of the dentate gyrus mossy fibers that can be observed at 7-8 weeks after KA administration. We tested the effect of compound XIV on i) epileptic activity (persistence of recurrent seizures), ii) neurodegeneration, neuroinflammation and the resulting brain tissue damage and iii) aberrant axonal sprouting of the dentate gyrus mossy fibers.
FVB/N adult male mice were injected with a single dose of KA (40-45 mg/kg s.c.) to generate mice with spontaneous recurrent seizures as a hallmark of SE. A negative control group of mice were administered saline 0.9% instead of KA and no further treatment (“SHAM”, n=5). Thirty minutes after the onset of SE, mice received either an intravenous (tail vein) bolus injection of compound XIV at the dose of 4 mg/kg eq. NT (treatment group “SE+HT”, n=5) or saline 0.9% (group “SE”, n=5), or a high dose of diazepam (DZP) at 15 mg/kg), a potent anti-convulsive and anti-epileptic drug (positive control group “SE+DZP”). Body temperature was monitored before KA injection and then every 15 min during 6 hours thereafter, using a rectal probe. During this period, mice were assessed for the occurrence and severity of motor seizures. One week later, animals were sacrificed for histological assessment of neuronal cell death on coronal sections, the hippocampal formation being the main structure in the brain showing tissue damage in this model of excitotoxicity. Another group of animals with the same treatments was sacrificed 8 weeks for histological assessment of aberrant axonal sprouting of the dentate gyrus mossy fibers.
Administration of KA (40-45 mg/kg; s.c.) caused characteristic sequential behavioral changes. Immediately after being injected, all animals developed immobility (stage 1). Within 30 minutes after KA injection, automatisms with head nodding, forelimb clonus and circling behavior (stages 2-3) were observed. Then most animals progressed to intermittent (stage 4) followed by continuous (stage 5) rearing with forelimb clonus and falling behavior. […] Only animals attaining at least Racine stage 5 seizures were included in the study. The SE occurred around 2 hours after KA injection, was characterized by stage 5-6 seizures and often associated with hyperthermia (FIG. 13A). Compound XIV administered 30 min after SE onset (SE30) invariably led to transient hypothermia (FIG. 13A), which persisted at least 2 hrs. Mean decreases in body temperature (BT) of −2.5° C. and −3.6° C. were respectively recorded for SE30+ compound XIV animals as compared to SE animals (F=52.34; ***P<0.001). […] SE30+ compound XIV animals presented an average of stage 2 seizures or fewer during the rest of experiment. A subset of animals was administered i.p. a high dose of diazepam (DZP). […] Thus, administration of compound XIV at the dose of 4 mg/kg eq. […] This effect correlated with a −3 to −6° C. decrease in body temperature during ˜2.5 hours.
Using the anti-NeuN antibody and Fluoro-jade C that respectively label a neuronspecific nuclear protein and neuronal death, we observed a broad loss of CA1 and CA3 pyramidal cells as well as some dentate hilar neurons in the hippocampus of control SE animals (FIG. 14A, panel B), as compared to SHAM animals (FIG. 14A, panel A).
SE-induced gliosis involved microglia and astroglial cell types. We used GFAP and Iba1 immunolabeling to estimate the effect of compound XIV on neuroinflammation. In SHAM animals, a basal labeling for GFAP and Iba1 was detected in the HF (FIG. 14A, panel D). In SE animals, a very strong activation of glial cells occurred in all hippocampal layers (FIG. 14, panels E, H). […]

The test system of another assay is mice. The assay can be described thus: Writhing test (acetic acid, acute visceral pain) in mice. The note with it: 30 min before acetic acid i.p. The procedure: In order to evaluate the antinociceptive potential of activated NT drugs, compound XIV was tested in an experimental pain model in mice. The writhing test was used as a model of acute visceral pain to assess the effect of compound XIV after intravenous administration. Given that the time to maximal decrease in body temperature in mice receiving compound XIV was around 45 min post-injection, we assumed similar pharmacodynamic kinetics in this pain model. Mice first received intravenous (bolus) injection of compound XIV at increasing dose levels, followed 30 min thereafter by intraperitoneal injection of acetic acid 0.7% (10 mL/kg). In control mice, intraperitoneal injection of acetic acid produces characteristic and quantifiable abdominal stretches (elongation of the body and extension of forelimbs) as early as 2-3 minutes following injection and reaching a peak between 5 and 15 min following injection. This time window was therefore used to evaluate the number of abdominal stretches (writhes counted over 10 min observation) in mice administered with either saline or compound XIV at 0.5, 1 or 5 mg/kg eq. NT.
On the technique in general: An intraperitoneal irritant provokes the stretching counted in writhing tests.

The mark [6] stands for this setting: administered 30 min after SE onset.

Some results are limits rather than exact numbers.

For `CCC(=O)N[C@@H]1CSSC[C@@H](C(=O)NCCOCCOCCOCCOCCOCCOCCC(=O)N[C@@H](CCCNC(=N)N)C(=O)N[C@@H](CCCNC(=N)N)C(=O)N2CCC[C@H]2C(=O)N[C@@H](Cc2ccc(O)cc2)C(=O)N[C@H](C(=O)N[C@@H](CC(C)C)C(=O)O)[C@@H](C)CC)NC(=O)CN(C)C(=O)[C@H](CCCNC(=N)N)NC(=O)[C@H](CC(C)C)NC(=O)[C@H](CCCNC(=N)N)NC(=O)[C@@H]2CCCCN2C(=O)[C@H](CCSC)NC1=O` [Compound XIV, Pr-cMPipRLRSarC-PEG6-RRPYIL-OH], the “further decrease of body temperature” value in assay [1] (6 mg/kg eq. NT i.v.) came to 4.7 °C. Besides, the “maximal antipyretic effect compared to Baseline 2 or saline” value in assay [1] (as of 2 mg/kg eq. NT i.v., 15 min post-injection) was −2.2 °C. Besides, the “maximal decrease in body temperature, day 1” value in the assay with Swiss (CD-1) mice [2] (day 1, 45 min post-injection) was −5.5 °C. The “mean decrease in body temperature, day 2 to day 4” value in the assay on Swiss (CD-1) mice [2] (day 2 to day 4, 30 min post-injection) was −3 °C. For the same compound, in the assay on Swiss (CD-1) mice [3] (10 mg/kg eq. NT i.v. bolus, 60 min post-injection), the “Maximal decrease in body temperature” value is −6.7 °C. Further, in the assay with Swiss (CD-1) mice [3] (20 mg/kg eq. NT, mice), the “hypothermic response at 20 mg/kg eq. NT versus 10 mg/kg eq. NT” value is given as “No further decrease in body temperature”. In addition, the “Minimal Effective Dose (MED), hypothermic effect” value with Swiss (CD-1) mice [3] (i.v. bolus) is on record as “about 0.1 mg/kg eq. NT”. In the assay on Swiss (CD-1) mice [3] (i.v. bolus, dose-response), the “ED50, hypothermic effect” value was 1.53 mg/kg eq. NT. The “mean decrease in body temperature compared to SE animals (first value)” value in assay [4] was −2.5 °C. Moreover, the “decrease in body temperature” value in assay [5] (4 mg/kg eq. NT i.v., during ~2.5 hours) is −3 to −6 °C. Also, in assay [5] (30 min after SE onset, second of two values, presumably 4 mg/kg eq. NT), the “mean decrease in body temperature compared to SE animals (second value)” value was −3.6 °C. Also, in assay [5] (setting [6]), the “glial inflammatory response in the hippocampus (GFAP, Iba1) compared with SE animals” value is listed as “significantly decreased”; the “persistence of transient hypothermia” value is reported as “at least 2 hrs”; the “seizure intensity compared with SE group” value is recorded as “significant decrease of seizures”; the “seizure stage (Racine) during the rest of the experiment” value is listed as ≤ 2 stage. Further, the “number of mossy fiber terminals innervating the IML (ZnT3) compared with SE animals” value in assay [5] (administered 30 min after SE onset, 8 weeks after SE) was “considerably reduced”. For the same compound, the “neurodegeneration in the hippocampus (NeuN, Fluoro-jade C) compared with SE animals” value in assay [5] (administered 30 min after SE onset, one week later) was “significantly decreased”. The “antinociceptive effect on writhe count” value in the assay with mice (0.5 mg/kg eq. NT i.v.) is “no effect”. In addition, the “reduction of the writhe count” value with mice (1 mg/kg eq. NT i.v.) was found to be 50%. In addition, the “reduction of the writhe count” value in the assay on mice (5 mg/kg eq. NT i.v.) is reported as 64%.
